The results in this text go back to patent US9387221B2, “SDF-1 binding nucleic acids and the use thereof in cancer treatment” (NOXXON Pharma AG, priority 2010, dated 2016).

Entries after “also recorded” stand apart in the source; their conditions may differ.

One series has as its system biotinylated human D-SDF-1. As to the kind of experiment: Competitive pull-down binding assay. To be noted: aptamer level; reference 192-A10-001. The protocol: In order to compare different D-SDF-1 binding aptamers, a competitive ranking assay was performed. For this purpose the most affine aptamer available was radioactively labeled (see above) and served as reference. […] An excess of de- and renatured non-labeled D-RNA aptamer variants was added to different concentrations (e.g. 2, 10, and 50 nM) with the labeled reference aptamer to parallel binding reactions. The aptamers to be tested competed with the reference aptamer for target binding, thus decreasing the binding signal in dependence of their binding characteristics.
With “AGCGUGAAAGUAACACGUAAAAUGAAAGGUAACCACGCU (Made as D-RNA aptamer and L-RNA Spiegelmer, tested form not given here, further chemistry not given here) [191-A6]”, the “binding affinity in competitive pull-down binding assay vs. 192-A10-001” value is reported as “Weaker binding affinity”.
On to “AGCGUGAAGGGGUUAGGGCUCGAAGUCGGCUGACACGCU (Made as D-RNA aptamer and L-RNA Spiegelmer, tested form not given here, further chemistry not given here) [191-A5]”, for which the “binding affinity in competitive pull-down binding assay vs. 192-A10-001” value is listed as “Much weaker binding affinity”.
Consider “AGCGUGGUGUGAUCUAGAUGUAAUGGCUGAUCCUAGUCAGGUGCGCU (chemistry not fully specified) [193-F2-001]”, for which the “binding affinity in competitive pull-down binding assay vs. 192-A10-001” value was “superior binding”.
“AGCGUGGUGUGAUCUAGAUGUAGUGGCUGAUCCUAGUCAGGUACGCU (chemistry not fully specified) [193-C2-001]”: the “binding affinity in competitive pull-down binding assay vs. 192-A10-001” value is recorded as “superior binding”.
In the case of “CGUGCGCUUGAGAUAGGGGUUAGGGCUUAAAGUCGGCUGAUUCUCACG (Made as D-RNA aptamer and L-RNA Spiegelmer, tested form not given here, further chemistry not given here) [190-A3-001]”, the “binding affinity in competitive pull-down binding assay vs. 192-A10-001” value is listed as “weaker binding affinities”.
In the case of “GCAGUGAAAGUAACAUGUCAAUGAAAGGUAACCACAGC (aptamer; Made as D-RNA aptamer and L-RNA Spiegelmer, tested form not given here, further chemistry not given here) [192-D11]”, the “binding affinity in competitive pull-down binding assay vs. 192-A10-001” value was “Weaker binding affinity”.

Staying with this series, now noted: reference 191-D5-001.
Turning to “CGGGCGAGGUUAGGGCUAGAAGUCGGUCGACCG (Made as D-RNA aptamer and L-RNA Spiegelmer, tested form not given here, further chemistry not given here) [191-D5-004]”, the “binding affinity in competitive pull-down binding assay vs. 191-D5-001” value is reported as “reduced binding affinity”.

The series is the same for the next values; noted with them: reference 191-D5-007.
Consider “CCCGGGUUAGGGCUAGAAGUCGGCGGG (chemistry not fully specified) [191-D5-029]”, for which the “binding affinity in competitive pull-down binding assay vs. 191-D5-007” value was “reduced binding affinity”.
Same read-out and setting: next, “CCGCGGUUAGGGCUAGAAGUCGGGCGG (chemistry not given here) [191-D5-017]”: “reduced binding affinity”; “CGCCGGGGUUAGGGCUAGAAGUCGGCCGGCG (chemistry not fully specified) [197-B2-006-31b]”: “the same as shown for 191-D5-007 and 197-B2-006”.
On to “CGGCGGGUUAGGGCUAGAAGUCGGCGCCG (chemistry not fully specified) [191-D5-024-29a]”, for which the “binding affinity in competitive pull-down binding assay vs. 191-D5-007” value is given as “identical binding affinity to SDF-1 as 191-D5-007”.

The series is the same for the next values; noted with them: reference 193-G2-001.
For the sequence “GCAUGGUGUGAUCUAGAUGUAGUGGCUGAUCCUAGUCAGGUGCCC (chemistry not fully specified) [193-A1-002]”, the “binding to human SDF-1 in comparison to 193-G2-001” value is reported as “reduced binding; also recorded: weaker binding affinities”.
Consider “GCGAGGUGUGAUCUAGAUGUAGUGGCUGAUCCUAGUCAGGUGCGC (chemistry not fully specified) [193-G1-002]”, for which the “binding to human SDF-1 in comparison to 193-G2-001” value is on record as “reduced binding; also recorded: weaker binding affinities”.
The same measure, in the same setting: next, “GCGUGGUGUGAUCUAGAUGUAAAGGCUGAUCCUAGUCAGGUACGC (chemistry not fully specified) [193-H3-002]”: “reduced binding”.

The series is the same for the next values; noted with them: vs. 192-A10-001 and 192-A10-008.
With “AAAGCAACAUGUCAAUGAAAGGUAGC (chemistry not fully specified) [192-A10-007]”, the “binding affinity of derivatives of 192-A10-001 in competitive pull-down binding assay” value is given as “reduced binding affinity”.
Take “CCCCAAAGCAACAUGUCAAUGAAAGGUAGCGGGG (aptamer; chemistry not given here) [192-A10-023]”: the “binding affinity of derivatives of 192-A10-001 in competitive pull-down binding assay” value is on record as “weaker, much weaker or very much weaker binding affinity”.
For the sequence “CGCGAAAGCAACAUGUCAAUGAAAGGUAGCCGUG (aptamer; chemistry not given here) [192-A10-019]”, the “binding affinity of derivatives of 192-A10-001 in competitive pull-down binding assay” value is given as “weaker, much weaker or very much weaker binding affinity”.
On to “CGUGAAAGCAACAUGUCAAUGAAAGGUAGCCGCG (aptamer; chemistry not given here) [192-A10-016]”, for which the “binding affinity of derivatives of 192-A10-001 in competitive pull-down binding assay” value is “weaker, much weaker or very much weaker binding affinity”.
Take “CUGUGAAAGCAACAUGUCAAUGAAAGGUAGCCGCAG (aptamer; Made as D-RNA aptamer and L-RNA Spiegelmer, tested form not given here, further chemistry not given here) [192-A10-002]”: the “binding affinity of derivatives of 192-A10-001 in competitive pull-down binding assay” value is on record as “without reduction of binding affinity”.
The same measure, in the same setting: for “GAAAGCAACAUGUCAAUGAAAGGUAGCC (chemistry not fully specified) [192-A10-006]” the value was “reduced binding affinity”.
On to “GCCCAAAGCAACAUGUCAAUGAAAGGUAGCGGGC (aptamer; chemistry not given here) [192-A10-022]”, for which the “binding affinity of derivatives of 192-A10-001 in competitive pull-down binding assay” value is given as “weaker, much weaker or very much weaker binding affinity”.
For “GCGCAAAGCAACAUGUCAAUGAAAGGUAGCGUGC (aptamer; chemistry not given here) [192-A10-017]”, the “binding affinity of derivatives of 192-A10-001 in competitive pull-down binding assay” value is “weaker, much weaker or very much weaker binding affinity”.
With “GCGCGAAAGCAACAUGUCAAUGAAAGGUAGCCGCGC (aptamer; Made as D-RNA aptamer and L-RNA Spiegelmer, tested form not given here, further chemistry not given here) [192-A10-015]”, the “binding affinity of derivatives of 192-A10-001 in competitive pull-down binding assay” value was “reduced binding affinity; also recorded: weaker, much weaker or very much weaker binding affinity”.
On to “GCGGAAAGCAACAUGUCAAUGAAAGGUAGCCCGC (aptamer; chemistry not given here) [192-A10-014]”, for which the “binding affinity of derivatives of 192-A10-001 in competitive pull-down binding assay” value is recorded as “weaker, much weaker or very much weaker binding affinity”.

Still in this series, the particulars now being: vs. 193-G2-001 and 193-G2-012.
Consider “CGUGGUGUGAUCUAGAUGUAGUGGCUGAUCCUAGUCAGGUACG (chemistry not fully specified) [193-C2-003]”, for which the “binding affinity of derivatives of 193-G2-001 and 193-C2-001 in competitive pull-down binding assay” value was “reduced binding affinity”.
Same read-out and setting: for “GCCCGUGUGAUCUAGAUGUAUUGGCUGAUCCUAGUCAGGGGGC (chemistry not fully specified) [193-G2-017]” the value was “reduced binding affinity”.
As to “GCGCGGUGUGAUCUAGAUGUAUUGGCUGAUCCUAGUCAGGCGCGC (chemistry not fully specified) [193-G2-013]”, the “binding affinity of derivatives of 193-G2-001 and 193-C2-001 in competitive pull-down binding assay” value is “reduced binding affinity”.
With “GCGCGUGUGAUCUAGAUGUAUUGGCUGAUCCUAGUCAGGGCGC (chemistry not fully specified) [193-G2-014]”, the “binding affinity of derivatives of 193-G2-001 and 193-C2-001 in competitive pull-down binding assay” value is “reduced binding affinity”.

Still in this series, the particulars now being: vs. 197-B2 and 191-D5-007.
For “GCGGGGGUUAGGGCUAGAAGUCGGCCUGC (chemistry not fully specified) [197-B2-005]”, the “binding affinity of truncated derivatives of 197-B2” value was “without loss of binding affinity”.
